# Columns and labels:
# [1] = system: NMDA lesion of the dorsal hippocampus in rats; assay: Active allothetic place avoidance (AAPA) after bilateral excitotoxic NMDA lesion of dorsal hippocampus; assay type: in vivo, rat Long-Evans strain; settings: for NMDA lession Improvement in Cognition in AAPA after NMDA Lession: 1 mg/kg after NMDA lesion; for NMDA lession Improvement in Cognition in AAPA after NMDA Lession: key: −: the desired effect was not observed; −/+: the desired effect was insufficient; +: the desired effect was observed
# Experimental: In the Experimental Part 2 were used adult (3 months old, 300-400 g) male rat Long-Evans strain. The animals come from herds Institute of Physiology ASCR. The rats were housed in clear plastic boxes with the same light cycle as in mice. Animals had free access to food and water. All experiments were carried out in the light of clay. All experiments were carried out in accordance with the Law on protection of animals against cruelty.
# The anesthetized rats were used in operations isoflurane (3.5%, Baxter). To recall excitotoxic lesion of the dorsal hippocampus was applied 0.05 mol·l^−1 solution of NMDA (Sigma-Aldrich) in 0.4 mol·l^−1 phosphate buffer solution prepared by mixing 356 g Na2HPO4.12H2O (Mw358.14) in 4.2 l of distilled water and a solution of 62.4 g NaHPO4. 2H2O (Mw156.01) in 0.8 l of distilled water. The pH of the resulting solution of NMDA was adjusted to 7.4 with NaOH.
# In this experiment, the neuroprotective effects were evaluated for amphiphilic steroid compounds. The procedure was performed according to Neuropharmacology 61, 61-68 (2011)
# The rats were randomly divided into eleven groups. The control group included operated animals, which were injected by phosphate buffer […] into the hippocampus. In the second group, the animals had NMDA lesions of the hippocampus. The animals of the third group were applied clinically used NMDA antagonist memantine at a dose of 5 mg/kg after NMDA lesion. The other groups were administered the compounds at a dose of 1 mg/kg.
# The test was performed in rotating arena with prohibited sector in the form of a circular sector (60°). If the rat entered the sector, its limbs received weak electrical impulse.
# Test memory and spatial cognition in rats using AAPA was evaluated over four sessions, which are in healthy rats sufficient to achieve asymptotic level (Behay. Brain. Res. 189, 139-144 (2008)). To evaluate memory and spatial cognition was used data from the fourth session, and the number of entries into the forbidden sector and the maximum avoidance sector. […] After the experiment, the localization of the lesion was histologically verified.
# Data were analyzed using the non parametric test of Maim Whitney criteria using the GraphPad. The difference was considered significant for p<0.05, for a non-significant tendency then for 0.05<p<0.075.
# [2] = system: laboratory mice, strain CD-1; assay: Elevated plus maze (anxiety); assay type: in vivo; settings: vs saline and CDX controls
# Experimental: In the Experimental Part 1 were used adults (30-35 g) male laboratory mice, strain CD-1 from Velaz facility, Czech Republic. Mice were housed in plastic boxes with a 12-hour light cycle (lights on at 7:00 pm). Mice had free access to food and water.
# Amphiphilic steroid compounds were dissolved in a solution of 3 g (2-hydroxypropyl)-β-cyclodextrin (CDX, Sigma-Aldrich) and 157 mg of citric acid ([…], Sigma-Aldrich) in 30 ml of distilled water, the pH was adjusted to 7.4 using sodium hydroxide (NaOH, Sigma-Aldrich). Thus there were prepared solutions of the four steroids for application rates of 0.1, 1, 10 and 100 mg/kg.
# The elevated plus maze (EPM) experiment was used to determine the effect of compounds on anxiety of animals at a dose of 1 mg/kg. Two control groups of animals were used to which was applied physiological saline and CDX solution, respectively. A noncompetitive NMDA receptor antagonist—ketamine (10 mg/kg) was given to a comparative group. The compounds were administered to mice intraperitoneally 30 minutes before testing in the EPM.
# [3] = 1 mg/kg after surgery, vs NMDA group
# [4] = 1 mg/kg i.p., 30 minutes before testing
Compound,NMDA lession Improvement in Cognition in AAPA after NMDA Lession [1],"maximum time avoiding the sector, fourth session of AAPA [1, 3]","number of entries into the forbidden sector, fourth session of AAPA [1, 3]","number of entries into the open arms [2, 4]","total time spent in the open arms [2, 4]",number of entries into the open arms ([2]; 10 mg/kg),total time spent in the open arms ([2]; 10 mg/kg)
"C[C@@]12CCCCC1[C@@H]1CC[C@@H]3C[C@H](OC(=O)[C@@H](N)CCC(=O)O)CC[C@]3(C)[C@H]1CC2 (stereo partly drawn) [Compound 106, (4S)-4-Amino-5-(((2R,4aS,4bS,6aS,10bS,12aR)-4a,6a-dimethyloctadekahydrochrysen-2-yl)oxy)-5-oxopentanoic acid]",−,,,,,,
"C[C@@]12CCC[C@H]1[C@@H]1CC[C@@H]3C[C@H](OC(=O)[C@@H](N)CCC(=O)O)CC[C@]3(C)[C@H]1CC2 [Compound 130, (4S)-4-Amino-5-(((3R,5R,8S,9S,10S,13S,14S)-10,13-dimethylhexadecahydro-1H-cyclopenta[a]phenanthren-3-yl)oxy)-5-oxopentanoic acid]",,significantly increased,significant reduction,significantly increased,significantly increased,not significantly altered,significant increase
"Pyridinium (3S,3aS,5bR,7aR,9R,11aS,11bS,13aR)-3,11a-dimethylhexadecahydro-1H,3H-naphtho[2′,1′:4,5]indeno[1,7a-c]furan-9-yl 9-sulfate [Compound 124]",−,,,,,,

# From patent US10017535B2, “Amphiphilic compounds with neuroprotective properties” (USTAV ORGANICKE CHEMIE A BIOCHEMIE AV CR, v.v.i., priority 2014, dated 2018)
